Results taken from patent US20240279278A1, “NMU RECEPTOR 2 AGONISTS” (Boehringer Ingelheim International GmbH, priority 2023, published 2024).
Converted amounts (≈) assume the structure as drawn. Residues, ends and D or L forms follow the SMILES beside them.

What was measured:
human NMUR1 receptor = biological target: T1, human NMUR1 receptor (Homo sapiens, UniProt Q9HB89); assay: Radioligand binding competition assay (RLB), human NMUR1 receptor binding (SPA, [125I]-Neuromedin U-25); settings: CHO-K1 hNMUR1 cell membranes, 4 hours at RT
T1 construct: host or cells: CHO-K1
T1 sequence (Q9HB89 24-426 limits assumed): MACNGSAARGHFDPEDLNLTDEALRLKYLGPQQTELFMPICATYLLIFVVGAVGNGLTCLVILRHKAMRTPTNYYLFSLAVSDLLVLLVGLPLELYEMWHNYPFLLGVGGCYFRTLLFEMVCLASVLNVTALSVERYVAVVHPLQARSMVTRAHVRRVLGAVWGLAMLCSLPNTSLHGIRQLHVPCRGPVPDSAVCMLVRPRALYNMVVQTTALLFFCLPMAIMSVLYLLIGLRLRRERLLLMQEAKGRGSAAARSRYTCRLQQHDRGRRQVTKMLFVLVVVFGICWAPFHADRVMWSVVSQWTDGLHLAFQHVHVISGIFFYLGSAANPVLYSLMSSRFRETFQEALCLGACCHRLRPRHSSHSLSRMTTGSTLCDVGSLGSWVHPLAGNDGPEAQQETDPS
Excerpt: Example 2: Radioligand Binding Competition Assay (RLB) Human NMUR1 Receptor Binding 1) Membranes The test is based on membranes prepared from a human NMUR1/Apoaequorin Stable Cell Line (Creative Biogene, Cat. No. CSC-RG1308). Cell Line Description: CHO-NMUR1 cell line is clonally-derived from a CHO-K1 cell line, which has been transfected with a bicistronic expression plasmid containing the sequence coding for the human neuromedin U receptor 1 (NM_006056.4, 180 to 1391). Mosaic-ID: CL16550614 Membrane preparation: Cells were broken by nitrogen cavitation (900 psi, 1 hour). Intact cells were removed by centrifugation (400 rcf, 10 minutes, 4° C.) before the crude membrane fraction was collected by ultracentrifugation (20.000 rcf, 1 hour, 4° C.). 2) Human NMUR1 Receptor Binding Assay (Radioligand: [125l]-Neuromedin U-25) In this Scintillation Proximity Assay (SPA) design, the membranes immobilize directly to the PVT-WGA-PEI type A beads (polyethyleneimine treated polyvinyltoluene beads coupled to wheatgerm agglutinin, Perkin Elmer) via interactions of wheat germ agglutinate and glycosylated membrane structures. Thereby the radioactively la-belled ligand, bound to NMUR1 receptors on the membrane, comes in close proximity to the solid scintillator of the PVT bead. Radioactive human neuromedin U-25 then stimulates the scintillant to emit light. In contrast, radioligand not bound to the receptor is too distant from the bead to elicit a signal. For the Scintillation Proximity Assay the CHO-K1 hNMUR1 cell membranes and SPA-beads are diluted to concentrations, which assure a robust signal to background ratio. The SPA incubation buffer consists of 25 mM Hepes (pH=7.0), 5 mM MgCl2, 1 mM CaCl2, 10 ug/mL Saponine and 0.1% bovine serum albumin and is used for all dilutions. Final assay setup in 96-well plate: 20 μL of 10× test compound dilutions+40 μL of 5× [125l]-Neuromedin U-25 (1× approx. 30 pM; 2000 μCi/mmol (μCi=microcurie))+60 μL membrane dilution (approx. 1.0 μg membrane protein)+80 μL SPA bead dilution (250 μg). The assay is incubated for 4 hours at RT, including controls for specific binding where no displacer is added and non-specific binding by adding unlabeled hNMU-25 at 100 nM. Bound radioactivity is determined by scintillation counting (MicroBeta Trilux 1450, Perkin Elmer, detection of 125I decay). […] The system assumes one binding site with no relevant radioligand depletion (<10%) and that the binding is reversible and at equilibrium. [formula] [formula]

physchem = format: physicochemical
Procedure, shortened: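 Peptide TFA salts were shaken at a nominal 10 mg/mL in 0.1 M phosphate buffer, pH 6 to 8, for 2 h at room temperature and then filtered. Reversed-phase HPLC peak area was compared with a 1 mg/mL control in buffer or DMSO to give solubility. The pH of each sample was recorded.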

human NMUR2 receptor = human NMUR2 receptor (Homo sapiens, UniProt Q9GZQ4); assay: IP1 Gq HTRF assay, activation of human NMUR2 in human plasma; format: cell-based; set-up: expressed in transfected cells; host or cells: CHO-K1; settings: CHO-K1 cells expressing human NMUR2, 100% human plasma; read-out: EC50 (hNMUR2) human plasma
human NMUR2 receptor, sequence (Q9GZQ4 whole entry): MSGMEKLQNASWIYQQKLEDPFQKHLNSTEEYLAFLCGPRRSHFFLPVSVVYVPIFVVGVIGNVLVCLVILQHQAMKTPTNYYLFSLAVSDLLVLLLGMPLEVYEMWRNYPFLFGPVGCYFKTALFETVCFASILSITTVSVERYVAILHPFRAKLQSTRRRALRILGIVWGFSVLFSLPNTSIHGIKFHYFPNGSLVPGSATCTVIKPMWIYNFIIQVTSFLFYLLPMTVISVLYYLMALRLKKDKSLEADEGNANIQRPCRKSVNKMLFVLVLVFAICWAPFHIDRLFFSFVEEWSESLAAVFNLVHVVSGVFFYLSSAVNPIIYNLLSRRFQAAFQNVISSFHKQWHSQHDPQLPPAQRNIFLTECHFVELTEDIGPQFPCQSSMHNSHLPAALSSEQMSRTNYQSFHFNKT
Procedure, shortened: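 EC50 obtained via 4-parameter sigmoidal regression of HTRF IP-One signal (665 nm/620 nm), which falls as intracellular IP1 rises. Stimulation: 1 h, 37° C, peptides in human plasma plus 50 mM LiCl, 1% DMSO final, on NMUR2-expressing CHO-K1 cells, 8 concentrations.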

Row | SMILES | Ki (human NMUR1 receptor) [nM] | solubility at 2 h (physchem; pH 7.3) [µg/mL] | EC50 (human NMUR2 receptor) [nM] | solubility at 2 h (physchem; pH 7.2) [µg/mL]
1 | CCCC[C@H](NC(=O)[C@H](CC(C)C)N(C)C(=O)[C@H](Cc1ccccc1)NC(=O)[C@H](Cc1ccc(O)cc1)NC(=O)CN1CCN(CCNC(=O)CN(C)C(=O)CN(C)C(=O)CN(C)C(=O)CN(C)C(=O)CN(C)C(=O)CN(C)C(=O)CN(C)C(=O)CN(C)C(=O)CN(C)C(=O)CN(C)C(=O)CN(C)C(=O)CN(C)C(=O)CN(C)C(=O)CN(C)C(=O)CN(C)C(=O)CC[C@H](NC(=O)CC[C@H](NC(=O)CC[C@H](NC(=O)CCCCCCCCCCCCCCCCC(=O)O)C(=O)O)C(=O)O)C(=O)O)CC1)C(=O)N[C@@H](CCN)C(=O)N(C)[C@@H](C)C(=O)N[C@@H](CCCNC(=N)N)C(=O)NCC(N)=O [Compound 23, C18DA-gGlu3-Sar15-AEPipAc-Tyr-Phe-NMeLeu-Nle-Dbu-NMeAla-Arg-Gly-NH2] (HELM PEPTIDE1{[O=C(O)CCCCCCCCCCCCCCCCC(=O)[*:2]].[gGlu].[gGlu].[gGlu].[Sar].[Sar].[Sar].[Sar].[Sar].[Sar].[Sar].[Sar].[Sar].[Sar].[Sar].[Sar].[Sar].[Sar].[Sar].[O=C(CN1CCN(CCN[*:1])CC1)[*:2]].Y.F.[meL].[Nle].[Dab].[meA].R.G.[am]}$$$$V2.0) | > 10000 | 8900 (≈ 3.08 mM) | 11.1 | –
2 | CCCC[C@H](NC(=O)[C@H](CC(C)C)N(C)C(=O)[C@H](Cc1ccccc1)NC(=O)[C@H](Cc1ccc(O)cc1)NC(=O)CN1CCN(CCNC(=O)CN(C)C(=O)CN(C)C(=O)CN(C)C(=O)CN(C)C(=O)CN(C)C(=O)CN(C)C(=O)CN(C)C(=O)CN(C)C(=O)CN(C)C(=O)CC[C@H](NC(=O)CC[C@H](NC(=O)CC[C@H](NC(=O)CCCCCCCCCCCCCCCCC(=O)O)C(=O)O)C(=O)O)C(=O)O)CC1)C(=O)N[C@@H](CCN)C(=O)N1CCC[C@H]1C(=O)N[C@@H](CCCNC(=N)N)C(=O)NCC(N)=O [Compound 24, C18DA-gGlu3-Sar9-AEPipAc-Tyr-Phe-NMeLeu-Nle-Dbu-Pro-Arg-Gly-NH2] (HELM PEPTIDE1{[O=C(O)CCCCCCCCCCCCCCCCC(=O)[*:2]].[gGlu].[gGlu].[gGlu].[Sar].[Sar].[Sar].[Sar].[Sar].[Sar].[Sar].[Sar].[Sar].[O=C(CN1CCN(CCN[*:1])CC1)[*:2]].Y.F.[meL].[Nle].[Dab].P.R.G.[am]}$$$$V2.0) | > 10000 | 9500 (≈ 3.84 mM) | 12.6 | –
3 | CCCC[C@H](NC(=O)[C@H](CC(C)C)N(C)C(=O)[C@H](Cc1ccccc1)NC(=O)[C@H](Cc1ccc(O)cc1)NC(=O)CN1CCN(CCNC(=O)CN(C)C(=O)CN(C)C(=O)CN(C)C(=O)CN(C)C(=O)CN(C)C(=O)CN(C)C(=O)CN(C)C(=O)CN(C)C(=O)CN(C)C(=O)CN(C)C(=O)CN(C)C(=O)CN(C)C(=O)CC[C@H](NC(=O)CC[C@H](NC(=O)CC[C@H](NC(=O)CCCCCCCCCCCCCCCCC(=O)O)C(=O)O)C(=O)O)C(=O)O)CC1)C(=O)N[C@@H](CCCNC(=N)N)C(=O)N1CCC[C@H]1C(=O)N[C@@H](CCCNC(=N)N)C(=O)NCC(N)=O [Compound 25, C18DA-gGlu3-Sar12-AEPipAc-Tyr-Phe-NMeLeu-Nle-Arg-Pro-Arg-Gly-NH2] | > 10000 | – | 8.6 | 10000 (≈ 3.65 mM)
4 | CCCC[C@H](NC(=O)[C@H](CC(C)C)N(C)C(=O)[C@H](Cc1ccccc1)NC(=O)[C@H](Cc1ccc(O)cc1)NC(=O)CN1CCN(CCNC(=O)CN(C)C(=O)CN(C)C(=O)CN(C)C(=O)CN(C)C(=O)CN(C)C(=O)CN(C)C(=O)CN(C)C(=O)CN(C)C(=O)CN(C)C(=O)CN(C)C(=O)CN(C)C(=O)CN(C)C(=O)CN(C)C(=O)CN(C)C(=O)CN(C)C(=O)CC[C@H](NC(=O)CC[C@H](NC(=O)CC[C@H](NC(=O)CCCCCCCCCCCCCCCCC(=O)O)C(=O)O)C(=O)O)C(=O)O)CC1)C(=O)N[C@@H](CCN)C(=O)N1CCC[C@H]1C(=O)N[C@@H](CCCNC(=N)N)C(=O)NCC(N)=O [Compound 26, C18DA-gGlu3-Sar15-AEPipAc-Tyr-Phe-NMeLeu-Nle-Dbu-Pro-Arg-Gly-NH2] (HELM PEPTIDE1{[O=C(O)CCCCCCCCCCCCCCCCC(=O)[*:2]].[gGlu].[gGlu].[gGlu].[Sar].[Sar].[Sar].[Sar].[Sar].[Sar].[Sar].[Sar].[Sar].[Sar].[Sar].[Sar].[Sar].[Sar].[Sar].[O=C(CN1CCN(CCN[*:1])CC1)[*:2]].Y.F.[meL].[Nle].[Dab].P.R.G.[am]}$$$$V2.0) | > 10000 | 7700 (≈ 2.66 mM) | 3.9 | –
5 | CCCC[C@H](NC(=O)[C@H](CC(C)C)N(C)C(=O)[C@H](Cc1ccccc1)NC(=O)[C@H](Cc1ccc(O)cc1)NC(=O)CN1CCN(CCNC(=O)CN(C)C(=O)CN(C)C(=O)CN(C)C(=O)CN(C)C(=O)CN(C)C(=O)CN(C)C(=O)CN(C)C(=O)CN(C)C(=O)CN(C)C(=O)CN(C)C(=O)CN(C)C(=O)CN(C)C(=O)CC[C@H](NC(=O)CC[C@H](NC(=O)CC[C@H](NC(=O)CCCCCCCCCCCCCCCCC(=O)O)C(=O)O)C(=O)O)C(=O)O)CC1)C(=O)N[C@@H](CCN)C(=O)N1CCC[C@H]1C(=O)N[C@@H](CCCNC(=N)N)C(=O)NCC(N)=O [Compound 27, C18DA-gGlu3-Sar12-AEPipAc-Tyr-Phe-NMeLeu-Nle-Dbu-Pro-Arg-Gly-NH2] | > 10000 | – | 6.9 | 8800 (≈ 3.28 mM)
6 | CCCC[C@H](NC(=O)[C@H](CC(C)C)N(C)C(=O)[C@H](Cc1ccccc1)NC(=O)[C@H](Cc1ccc(O)cc1)NC(=O)CN1CCN(CCNC(=O)CN(C)C(=O)CN(C)C(=O)CN(C)C(=O)CN(C)C(=O)CN(C)C(=O)CN(C)C(=O)CN(C)C(=O)CN(C)C(=O)CN(C)C(=O)CC[C@H](NC(=O)CC[C@H](NC(=O)CC[C@H](NC(=O)CCCCCCCCCCCCCCCCC(=O)O)C(=O)O)C(=O)O)C(=O)O)CC1)C(=O)N[C@@H](CCN)C(=O)N(C)[C@@H](C)C(=O)N[C@@H](CCCNC(=N)N)C(=O)NCC(N)=O [Compound 28, C18DA-gGlu3-Sar9-AEPipAc-Tyr-Phe-NMeLeu-Nle-Dbu-NMeAla-Arg-Gly-NH2] (HELM PEPTIDE1{[O=C(O)CCCCCCCCCCCCCCCCC(=O)[*:2]].[gGlu].[gGlu].[gGlu].[Sar].[Sar].[Sar].[Sar].[Sar].[Sar].[Sar].[Sar].[Sar].[O=C(CN1CCN(CCN[*:1])CC1)[*:2]].Y.F.[meL].[Nle].[Dab].[meA].R.G.[am]}$$$$V2.0) | > 10000 | – | 10.8 | 8500 (≈ 3.46 mM)
7 | CCCC[C@H](NC(=O)[C@H](CC(C)C)N(C)C(=O)[C@H](Cc1ccccc1)NC(=O)[C@H](Cc1ccc(O)cc1)NC(=O)CN1CCN(CCNC(=O)CN(C)C(=O)CN(C)C(=O)CN(C)C(=O)CN(C)C(=O)CN(C)C(=O)CN(C)C(=O)CN(C)C(=O)CN(C)C(=O)CN(C)C(=O)CN(C)C(=O)CN(C)C(=O)CN(C)C(=O)CC[C@H](NC(=O)CC[C@H](NC(=O)CC[C@H](NC(=O)CCCCCCCCCCCCCCCCC(=O)O)C(=O)O)C(=O)O)C(=O)O)CC1)C(=O)N[C@@H](CCN)C(=O)N(C)[C@@H](C)C(=O)N[C@@H](CCCNC(=N)N)C(=O)NCC(N)=O [Compound 38, C18DA-gGlu3-Sar12-AEPipAc-Tyr-Phe-NMeLeu-Nle-Dbu-NMeAla-Arg-Gly-NH2] | > 10000 | – | 9.7 | 8800 (≈ 3.29 mM)
